Literature values in patent US10674699B2, “Endophyte enhanced seedlings with increased pest tolerance” (priority 2006, dated 2020).

Test system: spruce budworm cells
Settings: Can J Chem 81: 284; cited from earlier work

Substance: trihydroxy-4-1′-hydroxyethyl) isocoumarin
- toxicity to spruce budworm cells: ^camong others; a new compound trihydroxy-4-1′-hydroxyethyl) isocoumarin also toxic to spruce budworm cells (Can J Chem 81: 284)
